Assay: HILIC, Merck SeQuant ZIC-HILIC, 100 × 2.1 mm, 3.5 µm, 25 °C, 0.3 mL/min, estimated dead time 0.73 min; A: water + 0.1% formic acid, pH 3; B: acetonitrile + 0.1% formic acid, pH 3; gradient (min/%B) 0/95 1.5/95 13.5/40 15.5/40 29.7/25 33.5/25 34.5/95 41.5/95
Conditions: stereoisomer not certain

SMILES | LC retention time [min]
CCCCC(N)C(=O)O (racemic) [DL-Norleucine] | 6.41
Cn1c(=O)c2c([nH]c(=O)n2C)n(C)c1=O [1,3,7-trimethyluric acid] | 1.87
Cn1c(=O)[nH]c2[nH]c(=O)n(C)c2c1=O [1,7-dimethyluric acid] | 3.78
O=C(O)Cn1ccnc1 [1-Imidazoleacetic acid] | 7.7
CC(O)CN (stereo unspecified) [1-amino-2-propanol] | 8.65
Cn1c(=O)[nH]c2[nH]c(=O)[nH]c2c1=O [1-methyluric acid] | 4.66
NC(CCCC(N)C(=O)O)C(=O)O (stereo unspecified) [2,6-diaminopimelic acid] | 11.1
CC(=O)c1cnccn1 [2-Acetylpyrazine] | 0.96
Nc1ccccc1C(=O)O [2-Aminobenzoic acid] | 1.24
O=c1[nH]c2ccccc2o1 [2-Benzoxazolinone] | 1.01
CC1CCCN1 (stereo unspecified) [2-Methylpyrrolidine] | 6.72
O=c1[nH]cnc2c1ncn2C1CC(O)C(CO)O1 (stereo unspecified) [2-deoxyinosine] | 4.69
OCCc1ccc(O)c(O)c1 [3,4-dihydroxyphenylethanol] | 2.27
O=C(O)[C@H]1NCCC1O (stereo partly specified) [3-hydroxyproline] | 8.12
NC(N)=NCCCC(=O)O [4-Guanidinobutanoic acid] | 7.51
Cc1ncc(CO)c(C(=O)O)c1O [4-pyridoxic acid] | 4.14
C[N+](C)(C)CCCCC(=O)[O-] [5-Aminovaleric acid betaine] | 6.01
NCC(=O)CCC(=O)O [5-aminolevulinic acid] | 8.57
Nc1nc2c([nH]c(=O)n2C2OC(CO)C(O)C2O)c(=O)[nH]1 (stereo unspecified) [8-hydroxyguanosine] | 6.1
CC(N)C(=O)O (stereo unspecified) [Alanine] | 8.06
O=c1[nH]c(=O)c2cn[nH]c2[nH]1 [Alloxanthine] | 4.27
CC1(C)SC2C(NC(=O)C(N)c3ccc(O)cc3)C(=O)N2C1C(=O)O (stereo unspecified) [Amoxicillin] | 6.82
CC(NC(=O)C(Cc1ccccc1)NC(=O)C(N)CC(=O)O)C(=O)O (stereo not drawn) [Asp-Phe-Ala] | 6.71
NC(=O)CC(N)C(=O)O (stereo unspecified) [Asparagine] | 8.67
CC(O)C(O)c1cnc2nc(N)[nH]c(=O)c2n1 (stereo unspecified) [Biopterin] | 6.01

SMILES | LC retention time [min]
NC(=O)NCCCC(N)C(=O)O (stereo unspecified) [Citrulline] | 8.89
NC(CCSCC(N)C(=O)O)C(=O)O (stereo unspecified) [Cystathionine] | 10.5
N[C@H]1C(O)O[C@H](COP(=O)(O)O)[C@@H](O)[C@@H]1O (stereo partly drawn) [D-glucosamine-6-phosphate] | 10
OCCNCCO [Diethanolamine] | 8.22
O=C(O)c1cc(O)c(O)c(O)c1 [Gallic acid] | 4.67
O=C1OC(CO)C(O)C(O)C1O (stereo unspecified) [Gluconolactone] | 4.49
NC(N)=NCC(=O)O [Glycocyamine] | 8.52
O=S(=O)(O)CCN1CCN(CCO)CC1 [HEPES] | 10.7
O=C(O)CNC(=O)c1ccccc1 [Hippuric acid] | 1.36
NC(CCS)C(=O)O (stereo unspecified) [Homocysteine] | 7.41
NC(CCO)C(=O)O (stereo unspecified) [Homoserine] | 8.29
NCCc1cc(O)c(O)cc1O [Hydroxydopamine] | 9.19
O=C(O)c1c[nH]c2ccccc12 [Indole-3-carboxylic acid] | 1.46
Cn1cncc1CC(NC(=O)CCN)C(=O)O [L-Anserine] | 12.6
CCNC(=O)CC[C@H](N)C(=O)O [L-Theanine] | 7.58
CS(=O)(=O)CCC(N)C(=O)O [L-methionine sulfone] | 7.89
NCCCCC(N)C(=O)O (stereo unspecified) [Lysine] | 12.5
O=S(=O)(O)CCN1CCOCC1 [MES] | 6.42
OCC(O)C(O)C(O)C(O)CO (stereo unspecified) [Mannitol] | 6.57
CNCC(O)c1ccc(O)c(OC)c1 (stereo unspecified) [Metanephrine] | 7.06
COC(=O)c1nccnc1N [Methyl 3-aminopyrazine-2-carboxylic acid] | 1.05
COC(=O)c1cccnc1 [Methyl nicotinic acid] | 1.16
COC(=O)c1ccccn1 [Methylpicolinate] | 1.06
CC(=O)NCCCC[C@H]([NH3+])C(=O)[O-] [N6-Acetyl-L-lysine] | 7.59

The next lines start with the values.

LC retention time [min] | SMILES
8.28 | C[n+]1cccc(C(N)=O)c1 [1-Methylnicotinamide]
4.47 | O=c1[nH]cccc1O [2,3-Dihydroxypyridine]
6 | Nc1ccccc1O [2-Aminophenol]
1.85 | O=C1CCCCN1 [2-Piperidone]
4.67 | O=C(O)Cc1ccccn1 [2-Pyridylacetic acid]
1.46 | O=C(O)CNC(=O)c1ccco1 [2-furoylglycine]
8.17 | NC(Cc1ccc(O)c(O)c1)C(=O)O (stereo unspecified) [3,4-dihydroxyphenylalanine]
6.36 | Oc1cccnc1 [3-Hydroxypyridine]
1.26 | O=C(O)Cc1c[nH]c2ccccc12 [3-Indoleacetic acid]
5.94 | O=C(O)Cc1cccnc1 [3-Pyridylacetic acid]
12 | Cn1cncc1CC(N)C(=O)O (stereo unspecified) [3-methylhistidine]
8.1 | Nc1ccc(O)cc1 [4-Aminophenol]
1.3 | Nc1ccc(C(=O)O)c(O)c1 [4-Aminosalicylic acid]
5.95 | CC(CCC(=O)[O-])[N+](C)(C)C (stereo unspecified) [4-aminovaleric acid betaine]
3.62 | O=C(O)Cc1c[nH]c2ccc(O)cc12 [5-hydroxyindoleacetate]
7.58 | NC(Cc1c[nH]c2ccc(O)cc12)C(=O)O (stereo unspecified) [5-hydroxytryptophan]
6.62 | Cn1cnc2nc(N)[nH]c(=O)c21 [7-methylguanine]
2.72 | Cn1cnc2[nH]c(=O)[nH]c(=O)c21 [7-methylxanthine]
3.46 | CC(=O)OCC[N+](C)(C)C [Acetylcholine]

LC retention time [min] | SMILES
5.09 | CC(=O)NC(CCCNC(N)=O)C(=O)O (stereo unspecified) [Acetylcitrulline]
8.41 | Nc1ncnc2c1ncn2C1OC(COP(=O)(O)O)C(O)C1O (stereo unspecified) [Adenosine mono-phosphate]
8.61 | CNCC(O)c1ccc(O)c(O)c1 (stereo unspecified) [Adrenaline]
15.3 | NCCCCN=C(N)N [Agmatine]
7.32 | CC(C(=O)[O-])[N+](C)(C)C (stereo unspecified) [Alanine betaine]
6.54 | CC(C)CC(NC(=O)C(C)N)C(=O)O (stereo unspecified) [Alanyl-leucine]
7.15 | [NH3+]CCCCCC(=O)[O-] [Aminocaproate]
11.3 | NC(=NCCCC(N)C(=O)O)NC(CC(=O)O)C(=O)O (stereo unspecified) [Argininosuccinic acid]
5.89 | COC(=O)C(Cc1ccccc1)NC(=O)C(N)CC(=O)O (stereo unspecified) [Aspartame]
5.46 | NC(COCc1ccccc1)C(=O)O (stereo unspecified) [Benzylserine]
5 | O=S(=O)(O)CCNC1CCCCC1 [CHES]
13.1 | NCCC(=O)NC(Cc1cnc[nH]1)C(=O)O (stereo unspecified) [Carnosine]
1.3 | CC(CCC(=O)O)C1CCC2C3C(O)CC4CC(O)CCC4(C)C3CCC12C (stereo unspecified) [Chenodeoxycholic acid]
4.42 | O=C(C=Cc1ccc(O)c(O)c1)OC1CC(O)(C(=O)O)CC(O)C1O (stereo unspecified) [Chlorogenic acid]
10.6 | C[N+](C)(C)CCOP(=O)(O)OP(=O)([O-])OCC1OC(n2ccc(N)nc2=O)C(O)C1O (stereo unspecified) [Citicholine]
5.16 | CN1C(=O)CCC1c1cccnc1 (stereo unspecified) [Cotinine]
7.64 | NC(CSS(=O)(=O)O)C(=O)O (stereo unspecified) [Cysteine-S-sulfate]
7.62 | NC(CS)C(=O)O (stereo unspecified) [Cysteine]
4.02 | O=C1CC(C(=O)O)NC(=O)N1 (stereo unspecified) [Dihydroorotic acid]

LC retention time [min] | SMILES
6.85 | CC1=NCCC(C(=O)O)N1 (stereo unspecified) [Ectoine]
5.11 | OCC(O)C(O)CO (stereo unspecified) [Erythritol]
10.5 | NC1C(O)OC(CO)C(O)C1O (stereo unspecified) [Glucosamine]
6.86 | OCC1OC(O)C(O)C(O)C1O (stereo unspecified) [Glucose]
8.52 | NC(=O)CCC(N)C(=O)O (stereo unspecified) [Glutamine]
9.29 | NCC(=O)NCC(=O)O [Glycyl-glycine]
7.08 | CC(C)C(NC(=O)CN)C(=O)O (stereo unspecified) [Glycyl-valine]
8.15 | Nc1nc2c(ncn2C2OC(COP(=O)(O)O)C(O)C2O)c(=O)[nH]1 (stereo unspecified) [Guanosine mono-phosphate]
1.69 | OCCOCCOCCOCCOCCOCCO [Hexaethylene glycol]
14.4 | NCCc1cnc[nH]1 [Histamine]
6.93 | C[N+]1(C)CCCCC1C(=O)[O-] (stereo unspecified) [Homostachydrine]
7.87 | NCCS(=O)O [Hypotaurine]
2.25 | O=C(O)c1ccncc1 [Isonicotinic acid]
12.2 | NC(N)=NCCC[C@H](N)C(=O)O [L-Arginine]
6.76 | CC[C@H](C)[C@H](N)C(=O)O [L-Isoleucine]
8.84 | CN(C)C(=N)N=C(N)N [Metformin]
8.59 | CS(=O)CCC(N)C(=O)O (stereo unspecified) [Methionine sulfoxide]
1.05 | Cc1ccccc1C(=O)NCC(=O)O [Methylhippurate]
4.81 | CSCC1OC(n2cnc3c(N)ncnc32)C(O)C1O (stereo unspecified) [Methylthioadenosine]

Reference: the RepoRT retention time repository (doi:10.1021/acs.analchem.7b00925)
